{"source": "patent US9618513B2", "about": "“Compositions and methods for detecting and treating colorectal cancer” (The Regents of the University of Michigan, priority 2014, dated 2017)", "key": {"[1]": {"tested_on": "NANOG, SOX2, POU5F1 (OCT3/4)", "assay": "Stem cell core gene expression (real-time PCR, western blotting)", "format": "cell-based, human", "settings": "DLD-1, IL-22 20 ng/ml", "text": "(A), IL-22 is expressed in colon cancer tissues. IL-22 mRNA was detected by real-time PCR in colon cancer tissues and peripheral blood. *P<0.05 compared to blood, 20 colon cancer patients. (B-D), Endogenous IL-22 promotes colon carcinogenesis. Single cells (10^7) isolated from colon cancer tissue were mixed with anti-IL-22 antibody or control mAb, and then subcutaneously injected to NSG mice. Tumor growth (B), incidence (C), and animal survival (D) are shown. (P<0.05 for all, n=5 per group). (E-G) Recombinant IL-22 promotes colon carcinogenesis. DLD-1 colon cancer cells (10^5) were pre-incubated with IL-22 (20 ng/ml) for 1 hour, and then subcutaneously injected to NSG mice. […] ALDH activity was determined by FACS based on aldefluor fluorescence. […] Results are expressed as fold changes of ALDH expression. […] The mRNA of stem cell core gene was detected by real-time PCR (K) and proteins were detected by western blotting (L, M). […]\n(A, B) IL-22 is expressed by immune cells in colon cancer tissues. Different cell populations were sorted from colon cancer tissues and IL-22 expression was measured by real time PCR. […] IL-22 was detected via ELISA. […] IL-22 was detected with ELISA (D) or intracellular staining (E). […] IL-22 mRNA was detected by real time PCR (F) and protein by ELISA (G). […] IL-22 expression was quantified with real-time PCR in the migrated and non-migrated cells. […]"}, "colon cancer cells": {"tested_on": "colon cancer cells", "assay": "Apoptosis by Annexin V FACS", "format": "cell-based, human", "protocol": "FIG. 20A-D A. Realtime PCR was used to detected the mRNA level of p53, p21, CCNE1 after stimulated with IL-22 in primary colon cancer cell lines. B. The effect of IL-22 on colon cancer cell apoptosis was analyzed by Annexin V using FACS. C.D The effect of IL-22 on 5-Fu induced apoptosis was also analyzed by Annexin V."}}}
{"substance": "IL-22: recombinant IL-22 (R&D systems), cytokine interleukin-22", "values": [{"measurement": "mRNA levels of stem cell core genes NANOG, SOX2, POU5F1 (OCT3/4)", "setting": "[1]; real-time PCR", "value": "enhanced"}, {"measurement": "protein levels of stem cell core genes NANOG, SOX2, POU5F1 (OCT3/4)", "setting": "[1]; western blotting", "value": "enhanced"}, {"measurement": "cell apoptosis", "setting": "colon cancer cells; IL-22 combined with 5-FU", "value": "no change"}, {"measurement": "cell apoptosis", "setting": "colon cancer cells; IL-22 stimulation alone", "value": "no change"}]}
